One assay deals with T1, ADAR1p110-WT (Homo sapiens, UniProt P55265).
T1 sequence (P55265 1-931 isoform P55265-5): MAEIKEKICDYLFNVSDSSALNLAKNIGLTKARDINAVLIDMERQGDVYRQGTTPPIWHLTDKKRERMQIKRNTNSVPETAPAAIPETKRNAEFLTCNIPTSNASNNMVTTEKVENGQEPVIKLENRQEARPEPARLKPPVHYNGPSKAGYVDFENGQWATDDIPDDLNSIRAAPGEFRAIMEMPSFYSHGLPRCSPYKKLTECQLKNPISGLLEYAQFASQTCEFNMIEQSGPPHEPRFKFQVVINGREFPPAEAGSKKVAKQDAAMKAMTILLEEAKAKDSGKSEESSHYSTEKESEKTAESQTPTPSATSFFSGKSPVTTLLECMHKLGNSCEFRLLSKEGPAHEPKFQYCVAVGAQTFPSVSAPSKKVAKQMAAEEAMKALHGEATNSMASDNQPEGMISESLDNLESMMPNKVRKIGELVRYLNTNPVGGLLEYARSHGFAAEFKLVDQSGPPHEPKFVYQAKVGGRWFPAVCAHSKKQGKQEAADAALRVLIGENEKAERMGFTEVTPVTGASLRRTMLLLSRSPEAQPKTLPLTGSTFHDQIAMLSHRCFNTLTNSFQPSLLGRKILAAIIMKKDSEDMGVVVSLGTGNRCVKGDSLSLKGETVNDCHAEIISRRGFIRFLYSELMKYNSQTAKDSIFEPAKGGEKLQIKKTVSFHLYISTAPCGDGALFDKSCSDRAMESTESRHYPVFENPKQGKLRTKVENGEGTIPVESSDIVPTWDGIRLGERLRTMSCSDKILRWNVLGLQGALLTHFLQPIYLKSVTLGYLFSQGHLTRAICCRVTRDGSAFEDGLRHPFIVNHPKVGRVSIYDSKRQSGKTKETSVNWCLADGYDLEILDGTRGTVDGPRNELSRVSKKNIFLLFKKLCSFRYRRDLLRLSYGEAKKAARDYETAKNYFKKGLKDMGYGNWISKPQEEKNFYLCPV
The experiment in a line: surface plasmon resonance (Biacore T200), ADAR1p110-WT. In kind it is binding. Particulars: SPR. An excerpt:
We synthesized 2 additional analogs of Compound #13 for preliminary structure activity relationships (SAR), namely, #13-Analog 1 and #13-Analog 2 (Table 3). Compound #13-Analog 1 lacks the 4-cyano moiety and #13-Analog 2 shifts the cyano to the 2-position of the phenyl ring. […] We hypothesized that the cyano-phenyl moiety will coordinate with the zinc atom in the active site when bound to ADAR1. We evaluated the ability of Compound #13 to bind to ADAR1 using surface plasmon resonance (SPR) on the Biacore T200. […] We modeled Compound #13 into the ADAR2 active site (56).
(In general: Surface plasmon resonance follows binding to a sensor surface in real time, without labels.)

The target in the next assay is T2, ADAR1p150 (Homo sapiens, UniProt P55265).
T2 construct: a full-length interferon-inducible p150 and a shorter N-terminus truncated p110
T2 sequence (P55265 1-1226): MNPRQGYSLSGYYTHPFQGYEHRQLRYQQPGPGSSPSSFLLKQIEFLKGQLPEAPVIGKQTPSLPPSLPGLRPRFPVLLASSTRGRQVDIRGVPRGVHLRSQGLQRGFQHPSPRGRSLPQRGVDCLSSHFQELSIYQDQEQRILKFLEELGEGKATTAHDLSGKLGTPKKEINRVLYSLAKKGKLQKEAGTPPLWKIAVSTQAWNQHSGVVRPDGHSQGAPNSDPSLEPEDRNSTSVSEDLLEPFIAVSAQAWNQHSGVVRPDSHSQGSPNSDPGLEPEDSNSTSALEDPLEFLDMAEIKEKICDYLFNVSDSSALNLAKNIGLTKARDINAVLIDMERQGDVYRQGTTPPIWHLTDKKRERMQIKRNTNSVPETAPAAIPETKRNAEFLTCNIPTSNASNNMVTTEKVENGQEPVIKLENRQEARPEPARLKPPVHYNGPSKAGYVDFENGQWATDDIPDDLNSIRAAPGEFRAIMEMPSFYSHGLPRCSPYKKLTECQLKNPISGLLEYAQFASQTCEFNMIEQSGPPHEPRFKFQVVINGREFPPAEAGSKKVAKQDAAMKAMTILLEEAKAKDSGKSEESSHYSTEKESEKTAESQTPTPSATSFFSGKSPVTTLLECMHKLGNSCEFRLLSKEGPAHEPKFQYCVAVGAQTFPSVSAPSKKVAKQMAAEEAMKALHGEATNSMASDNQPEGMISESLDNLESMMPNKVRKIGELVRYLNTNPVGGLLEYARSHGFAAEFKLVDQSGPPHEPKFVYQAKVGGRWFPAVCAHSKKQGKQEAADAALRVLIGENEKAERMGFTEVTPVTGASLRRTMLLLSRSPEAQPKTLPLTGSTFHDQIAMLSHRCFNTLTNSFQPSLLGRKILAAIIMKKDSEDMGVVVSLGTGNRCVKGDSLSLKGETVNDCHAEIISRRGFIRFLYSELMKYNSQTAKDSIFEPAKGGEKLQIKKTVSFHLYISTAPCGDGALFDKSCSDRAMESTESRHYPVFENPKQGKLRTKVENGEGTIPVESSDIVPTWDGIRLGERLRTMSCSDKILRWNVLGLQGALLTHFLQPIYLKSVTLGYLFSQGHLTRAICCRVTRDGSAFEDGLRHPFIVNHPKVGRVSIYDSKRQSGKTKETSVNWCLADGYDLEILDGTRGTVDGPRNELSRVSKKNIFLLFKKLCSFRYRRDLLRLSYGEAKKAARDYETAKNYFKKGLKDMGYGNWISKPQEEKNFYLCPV
Description: in vitro editing assay, ADAR1p150. In kind it is biochemical. Particulars: dsRNAs (matched, mismatched) and DNA:RNA hybrids; not shown. How it is done: We conducted in vitro editing assay at varying concentrations of Compound #13 with dsRNAs (matched, mismatched) and DNA:RNA hybrids, resulting in determination of IC50 values for ADAR1p110 and ADAR1p150 (not shown) in 7-40 μM ranges: examples of such experiments done for dsRNA are shown (FIG. 8). […] In vivo ADAR1 inhibitory effects in HeLa cells were examined by cDNA sequencing of RT-PCR products of known ADAR1 target RNAs. One example of analysis of such ADAR1 target sites located within the 3′UTR Alu dsRNA of TMPO mRNAs is shown (FIGS. 28A and 28B). This particular ADAR1 target site is highly edited in HeLa cells, more than 80%. Compound #13 inhibited this ADAR1 target site editing down to 0% (FIGS. 28A and 28B).

The text below walks through data of US20250066864A1, “METHODS FOR IDENTIFYING ADAR1 INHIBITORS, AND COMPOSITIONS AND METHODS OF USE IN TREATING CANCER” (The Wistar Institute of Anatomy and Biology, priority 2021, published 2025).

As for `N#Cc1ccc(NC(=O)c2sc3ccccc3c2Cl)cc1` [Compound #13, 3-chloro-N-(4-cyanophenyl)-1-benzothiophene-2-carboxamide], on ADAR1p110-WT, the “binding to ADAR1p110 wildtype (qualitative)” value is given as “binds”. The Kd (commonly the equilibrium constant for the complex coming apart) at ADAR1p110-WT (read-out: Kd, binding to ADAR1p110-WT) was roughly 26 µM. For the same compound, at ADAR1p150, the concentration for half-maximal inhibition (IC50) (in general, the concentration that inhibits the measured activity by half) lay in the range of 7 to 40 µM.
